{
  "source": "the Bradley open melting point set (2014)",
  "note": "“And” between values parts separate entries of the source, which are not always exact repeats. Identical values can stand only once.",
  "data": [
    {"values": [
      {"smiles": "Nc1ccc(C(=O)O)cc1", "note": "[4-aminobenzoic acid]", "melting point": "188 °C"},
      {"smiles": "Nc1ccc(CO)cc1", "note": "[4-aminobenzyl alcohol]", "melting point": "61 °C"},
      {"smiles": "N#CCc1ccc(N)cc1", "note": "[4-aminobenzyl_cyanide]", "melting point": "45 °C"},
      {"smiles": "N#CCc1ccc(N)cc1", "note": "[4-aminophenylacetonitrile]", "melting point": "44 °C"},
      {"smiles": "O=C(c1ccccc1)c1ccc(-c2ccccc2)cc1", "note": "[4-benzoylbiphenyl]", "melting point": "101 °C"},
      {"smiles": "OB(O)c1ccc(OCc2ccccc2)c(F)c1", "note": "[4-benzyloxy-3-fluorobenzeneboronic acid]", "melting point": "130 °C"},
      {"smiles": "N#CCc1ccc(Cc2ccccc2)cc1", "note": "[4-benzylphenylacetonitrile]", "melting point": "36 °C"},
      {"smiles": "Cc1ccc(Cc2ccccc2)cc1", "note": "[4-benzyltoluene]", "melting point": "5 °C"},
      {"smiles": "Nc1c(F)cc(Br)cc1F", "note": "[4-bromo-2,6-difluoroaniline]", "melting point": "64 °C"},
      {"smiles": "Cc1cc(Br)cc(C)c1N=C=S", "note": "[4-bromo-2,6-dimethylphenyl isothiocyanate]", "melting point": "80 °C"},
      {"smiles": "Oc1ccc(Br)cc1-c1cc[nH]n1", "note": "[4-bromo-2-(1h-pyrazol-3-yl)phenol]", "melting point": "162 °C"},
      {"smiles": "Oc1ccc(Br)cc1-c1ccno1", "note": "[4-bromo-2-(5-isoxazolyl)phenol]", "melting point": "211 °C"},
      {"smiles": "O=S(=O)(Cl)c1ccc(Br)cc1C(F)(F)F", "note": "[4-bromo-2-(trifluoromethyl)benzenesulfonyl chloride]", "melting point": "56 °C"},
      {"smiles": "Cc1cc(Br)cc(Cl)c1N", "note": "[4-bromo-2-chloro-6-methylaniline]", "melting point": "39 °C"},
      {"smiles": "OB(O)c1ccc(Br)cc1F", "note": "[4-bromo-2-fluorobenzeneboronic acid]", "melting point": "240 °C"},
      {"smiles": "Cc1cc(N)ccc1Br", "note": "[4-bromo-3-methylaniline]", "melting point": "81 °C"},
      {"smiles": "Nc1ccc(Br)cc1", "note": "[4-bromoaniline]", "melting point": "63 °C"},
      {"smiles": "COc1ccc(Br)cc1", "note": "[4-bromoanisole]", "melting point": "11 °C"},
      {"smiles": "OB(O)c1ccc(Br)cc1", "note": "[4-bromobenzeneboronic acid]", "melting point": "284 °C"},
      {"smiles": "O=C(O)c1ccc(Br)cc1", "note": "[4-bromobenzoic acid]", "melting point": "256 °C"},
      {"smiles": "OCc1ccc(Br)cc1", "note": "[4-bromobenzyl alcohol]", "melting point": "78 °C"},
      {"smiles": "ClCc1ccc(Br)cc1", "note": "[4-bromobenzyl chloride]", "melting point": "40 °C"},
      {"smiles": "Sc1ccc(Br)cc1", "note": "[4-bromothiophenol]", "melting point": "75 °C"},
      {"smiles": "Cc1ccc(Br)cc1", "note": "[4-bromotoluene]", "melting point": "28 °C"},
      {"smiles": "O=S(=O)(Nc1ccc(Cl)cc1)c1ccccc1", "note": "[4-chloro-1-phenylsulfonamidobenzene]", "melting point": "122 °C"},
      {"smiles": "Cc1cc(Cl)c(C)cc1N", "note": "[4-chloro-2,5-dimethylaniline]", "melting point": "92 °C"},
      {"smiles": "Oc1ccc(Cl)cc1-c1ccno1", "note": "[4-chloro-2-(5-isoxazolyl)phenol]", "melting point": "202 °C"},
      {"smiles": "Cc1cc(Cl)c2ccccc2n1", "note": "[4-chloro-2-methylquinoline]", "melting point": "25 °C"},
      {"smiles": "Cc1ccc(Cl)cc1[N+](=O)[O-]", "note": "[4-chloro-2-nitrotoluene]", "melting point": "39 °C"},
      {"smiles": "Cc1cc(O)cc(C)c1Cl", "note": "[4-chloro-3,5-dimethylphenol]", "melting point": "115 °C"},
      {"smiles": "Cc1cc(B(O)O)ccc1Cl", "note": "[4-chloro-3-methylbenzeneboronic acid]", "melting point": "240 °C"},
      {"smiles": "Cc1ccc(Cl)c([N+](=O)[O-])c1", "note": "[4-chloro-3-nitrotoluene]", "melting point": "7 °C"},
      {"smiles": "Nc1ccc(Cl)cc1N", "note": "[4-chloro-o-phenylenediamine]", "melting point": "72 °C"},
      {"smiles": "O=S(=O)(Cl)c1ccc(Cl)cc1", "note": "[4-chlorobenzenesulfonyl chloride]", "melting point": "52 °C"},
      {"smiles": "O=C(c1ccccc1)c1ccc(Cl)cc1", "note": "[4-chlorobenzophenone]", "melting point": "76 °C"},
      {"smiles": "SCc1ccc(Cl)cc1", "note": "[4-chlorobenzyl mercaptan]", "melting point": "20 °C"},
      {"smiles": "ClCc1ccc(Cl)cc1", "note": "[4-chlorobenzyl_chloride]", "melting point": "30 °C"},
      {"smiles": "C=Cc1ccc(Cl)cc1", "note": "[4-chlorostyrene]", "melting point": "-16 °C"},
      {"smiles": "Sc1ccc(Cl)cc1", "note": "[4-chlorothiophenol]", "melting point": "50 °C"},
      {"smiles": "O=C1CCOc2ccccc21", "note": "[4-chromanone]", "melting point": "38 °C"},
      {"smiles": "CCCCCc1ccc(-c2ccc(C#N)cc2)cc1", "note": "[4-cyano-4'-n-pentylbiphenyl]", "melting point": "23 °C"},
      {"smiles": "CCCCc1ccc(C(=O)Oc2ccc(C#N)cc2)cc1", "note": "[4-cyanophenyl 4-n-butylbenzoate]", "melting point": "68 °C"},
      {"smiles": "CCCc1ccc(C(=O)Oc2ccc(C#N)cc2)cc1", "note": "[4-cyanophenyl 4-n-propylbenzoate]", "melting point": "102 °C"},
      {"smiles": "N#Cc1ccncc1", "note": "[4-cyanopyridine]", "melting point": "78 °C"},
      {"smiles": "CN(C)c1ccc(C(=O)Cl)cc1", "note": "[4-dimethylaminobenzoyl chloride]", "melting point": "145 °C"},
      {"smiles": "CN(C)c1ccc(N=C=S)cc1", "note": "[4-dimethylaminophenyl isothiocyanate]", "melting point": "67 °C"},
      {"smiles": "CCOc1ccc(B(O)O)cc1", "note": "[4-ethoxybenzeneboronic acid]", "melting point": "167 °C"},
      {"smiles": "CCOc1ccc(N=C=S)cc1", "note": "[4-ethoxyphenyl isothiocyanate]", "melting point": "59 °C"},
      {"smiles": "CCN1CCOCC1", "note": "[4-ethylmorpholine]", "melting point": "-63 °C"},
      {"smiles": "CCc1ccc(C)cc1", "note": "[4-ethyltoluene]", "melting point": "-62 °C"},
      {"smiles": "Cc1cc(F)ccc1B(O)O", "note": "[4-fluoro-2-methylbenzeneboronic acid]", "melting point": "200 °C"},
      {"smiles": "Cc1cc(F)ccc1O", "note": "[4-fluoro-2-methylphenol]", "melting point": "34 °C"},
      {"smiles": "Nc1ccc(F)cc1[N+](=O)[O-]", "note": "[4-fluoro-2-nitroaniline]", "melting point": "92 °C"},
      {"smiles": "O=Cc1cc(B(O)O)ccc1F", "note": "[4-fluoro-3-formylbenzeneboronic acid]", "melting point": "240 °C"},
      {"smiles": "Cc1cc(B(O)O)ccc1F", "note": "[4-fluoro-3-methylbenzeneboronic acid]", "melting point": "210 °C"},
      {"smiles": "O=C(O)c1ccc(F)cc1", "note": "[4-fluorobenzoic acid] [listing 1 of 2 here]", "melting point": "185 °C"},
      {"smiles": "O=C(O)c1ccc(F)cc1", "note": "[4-fluorobenzoic acid] [listing 2 of 2 here]", "melting point": "185 °C"},
      {"smiles": "O=C(O)/C=C/c1ccc(F)cc1", "note": "[4-fluorocinnamic acid]", "melting point": "209 °C"},
      {"smiles": "Oc1ccc(F)cc1", "note": "[4-fluorophenol] [listing 1 of 2 here]", "melting point": "46.5 °C"},
      {"smiles": "Oc1ccc(F)cc1", "note": "[4-fluorophenol] [listing 2 of 2 here]", "melting point": "46 °C"},
      {"smiles": "CCCC(=O)CCC", "note": "[4-heptanone]", "melting point": "-33 °C"},
      {"smiles": "Oc1cccc2[nH]nnc12", "note": "[4-hydroxy-1h-benzotriazole]", "melting point": "222 °C"},
      {"smiles": "Cc1cc(C=O)cc(C)c1O", "note": "[4-hydroxy-3,5-dimethylbenzaldehyde]", "melting point": "114 °C"},
      {"smiles": "O=Cc1ccc(O)cc1", "note": "[4-hydroxybenzaldehyde]", "melting point": "118 °C"},
      {"smiles": "O=C(O)c1ccc(O)cc1", "note": "[4-hydroxybenzoic_acid]", "melting point": "217 °C"},
      {"smiles": "OCc1ccc(O)cc1", "note": "[4-hydroxybenzyl alcohol]", "melting point": "118 °C"},
      {"smiles": "N#CCc1ccc(O)cc1", "note": "[4-hydroxybenzyl_cyanide]", "melting point": "71 °C"},
      {"smiles": "O=C(/C=C/c1ccc(O)cc1)c1ccccc1", "note": "[4-hydroxychalcone]", "melting point": "184 °C"},
      {"smiles": "Oc1cccc2[nH]ccc12", "note": "[4-hydroxyindole]", "melting point": "98 °C"},
      {"smiles": "NC(=O)Cc1ccc(O)cc1", "note": "[4-hydroxyphenylacetamide]", "melting point": "174 °C"},
      {"smiles": "N#CCc1ccc(O)cc1", "note": "[4-hydroxyphenylacetonitrile]", "melting point": "69 °C"},
      {"smiles": "Nc1ccc(I)cc1", "note": "[4-iodoaniline]", "melting point": "63 °C"},
      {"smiles": "Ic1ccc(-c2ccccc2)cc1", "note": "[4-iodobiphenyl]", "melting point": "114 °C"},
      {"smiles": "Oc1ccc(I)cc1", "note": "[4-iodophenol]", "melting point": "93 °C"},
      {"smiles": "CC(C)Cc1ccc(C(C)C(=O)O)cc1", "note": "(stereo not drawn) [4-isobutyl-alpha-methylphenylacetic acid]", "melting point": "77 °C"},
      {"smiles": "CC(C)c1ccc(/C=C/[N+](=O)[O-])cc1", "note": "[4-isopropyl-beta-nitrostyrene]", "melting point": "37 °C"},
      {"smiles": "CC(C)c1ccc(O)cc1", "note": "[4-isopropylphenol]", "melting point": "60 °C"},
      {"smiles": "COc1ccc(B(O)O)c(C)c1", "note": "[4-methoxy-2-methylbenzeneboronic acid]", "melting point": "191 °C"},
      {"smiles": "CCCCCCCCOc1ccc(NC(=O)c2ccc(OC)cc2)cc1", "note": "[4-methoxy-N-[4-(octyloxy)phenyl]benzamide]", "melting point": "153 °C"},
      {"smiles": "COc1ccc(B(O)O)cc1", "note": "[4-methoxybenzeneboronic acid]", "melting point": "205 °C"},
      {"smiles": "COc1ccc(S(N)(=O)=O)cc1", "note": "[4-methoxybenzenesulfonamide]", "melting point": "112 °C"},
      {"smiles": "COc1ccc(S(=O)(=O)Cl)cc1", "note": "[4-methoxybenzenesulfonyl chloride]", "melting point": "40 °C"},
      {"smiles": "COc1ccc(C(=O)O)cc1", "note": "[4-methoxybenzoic acid]", "melting point": "185 °C"},
      {"smiles": "COc1ccc(C(=O)Cl)cc1", "note": "[4-methoxybenzoyl chloride]", "melting point": "22 °C"},
      {"smiles": "COc1ccc(-c2ccccc2)cc1", "note": "[4-methoxybiphenyl]", "melting point": "91 °C"},
      {"smiles": "COc1ccc(O)cc1", "note": "[4-methoxyphenol]", "melting point": "56 °C and 57 °C"},
      {"smiles": "COc1ccc(OCC(=O)O)cc1", "note": "[4-methoxyphenoxyacetic acid]", "melting point": "111 °C"},
      {"smiles": "COc1ccc(N=C=S)cc1", "note": "[4-methoxyphenyl isothiocyanate]", "melting point": "19 °C"},
      {"smiles": "COc1ccc(/C=C/c2ccccc2)cc1", "note": "[4-methoxystilbene]", "melting point": "137 °C"},
      {"smiles": "C=CCC(C)C", "note": "[4-methyl-1-pentene]", "melting point": "-153 °C"},
      {"smiles": "CC(C)CC=CB(O)O", "note": "[4-methyl-1-pentenylboronic acid]", "melting point": "101 °C"},
      {"smiles": "Cc1ccc(N)c([N+](=O)[O-])c1", "note": "[4-methyl-2-nitroaniline]", "melting point": "117 °C"},
      {"smiles": "Cc1ccc(B(O)O)cc1[N+](=O)[O-]", "note": "[4-methyl-3-nitrobenzeneboronic acid]", "melting point": "250 °C"},
      {"smiles": "Cc1ccc(S(=O)(=O)Cl)cc1[N+](=O)[O-]", "note": "[4-methyl-3-nitrobenzenesulfonyl chloride]", "melting point": "35 °C"},
      {"smiles": "Cc1ccc(B(O)O)cc1", "note": "[4-methylbenzeneboronic acid]", "melting point": "250 °C"},
      {"smiles": "Cc1ccc(C(=O)c2ccccc2)cc1", "note": "[4-methylbenzophenone]", "melting point": "55 °C"},
      {"smiles": "Cc1ccc(CCl)cc1", "note": "[4-methylbenzyl chloride]", "melting point": "5 °C"},
      {"smiles": "Cc1cc[n+]([O-])cc1C(N)=O", "note": "[4-methylpyridine-3-carboxamide 1-oxide]", "melting point": "280 °C"},
      {"smiles": "C=Cc1ccc(C)cc1", "note": "[4-methylstyrene]", "melting point": "-34 °C"},
      {"smiles": "CCCCc1ccc(B(O)O)cc1", "note": "[4-n-butylbenzeneboronic acid]", "melting point": "105 °C"},
      {"smiles": "CCCCCCCCCCc1ccc(-c2ccccc2)cc1", "note": "[4-n-decylbiphenyl]", "melting point": "53 °C"},
      {"smiles": "CCCCCCCCCCOc1ccc(C(=O)O)cc1", "note": "[4-n-decyloxybenzoic acid]", "melting point": "97 °C"},
      {"smiles": "CCCCCCCCCc1ccc(O)cc1", "note": "[4-n-nonylphenol]", "melting point": "45 °C"}
    ]}
  ]
}
